The source of these data is ChEMBL document CHEMBL3751851, “Antileukemic activity of lignans and phenylpropanoids of Cinnamomum parthenoxylon” (Bioorg Med Chem Lett, 2016).

Each structure is given as a SMILES string. The source made the active and inactive calls. The rule behind the calls is not given here.

One assay deals with U-937. The assay can be described thus: Induction of apoptotic morphological changes in human U937 cells at 50 uM after 48 hrs by Hoechst 33342 staining. The class given is functional, cell-based.
Conditions: not given
On to `OC1OC[C@H](Cc2ccc3c(c2)OCO3)[C@H]1Cc1ccc2c(c1)OCO2` (stereo partly specified), for which the result was Active.

`c1cc2c(cc1C[C@H]1COC[C@@H]1Cc1ccc3c(c1)OCO3)OCO2`: the result was Active.

In the case of `O=C1OC[C@H](Cc2ccc3c(c2)OCO3)[C@H]1Cc1ccc2c(c1)OCO2` [HINOKININ], the result was Active.

Test system in the next assay: not listed separately
The assay can be described thus: Cytotoxicity against human U937 cells after 48 hrs by CCK8 assay. In kind it is functional, cell-based. The conditions noted are these: U-937, 48 h.
The term IC50 denotes the point on the concentration scale where inhibition reaches its midpoint. On to `OC1OC[C@H](Cc2ccc3c(c2)OCO3)[C@H]1Cc1ccc2c(c1)OCO2` (stereo partly specified), for which 15.7 µM corresponded to half-maximal inhibition (IC50).

For `c1cc2c(cc1C[C@H]1COC[C@@H]1Cc1ccc3c(c1)OCO3)OCO2`, inhibition was half-maximal at 40.2 µM (IC50). This IC50 lies about 2.6-fold higher than the previous one.

Regarding `O=C1OC[C@H](Cc2ccc3c(c2)OCO3)[C@H]1Cc1ccc2c(c1)OCO2` [HINOKININ], the IC50 turned out to be 10.4 µM. This IC50 lies about 3.9-fold lower than the previous one.

Molecule `C=CCc1ccc2c(c1)OCO2` [SAFROLE] registered an IC50 of 52.3 µM.

Take `OCC(O)Cc1ccc2c(c1)OCO2` (stereo unspecified) [SAFROLGLYCOL]: the IC50 stood at 50.8 µM.

Another assay deals with Huh-7. The assay can be described thus: Induction of apoptosis in human HuH7 cells assessed as increase of casapase-3 activity after 1 hr by DEVD-pNA cleavage assay relative to control. The class given is functional.
Conditions: not given
Turning to `O=C1OC[C@H](Cc2ccc3c(c2)OCO3)[C@H]1Cc1ccc2c(c1)OCO2` [HINOKININ], the “fold change (FC)” value came to 2.

The subject of another assay is HL-60. The assay can be described thus: Induction of apoptotic morphological changes in human HL60 cells at 50 uM after 48 hrs by Hoechst 33342 staining. In kind it is functional, cell-based.
Conditions: not given
As for `OC1OC[C@H](Cc2ccc3c(c2)OCO3)[C@H]1Cc1ccc2c(c1)OCO2` (stereo partly specified), the outcome was Active.

`O=C1OC[C@H](Cc2ccc3c(c2)OCO3)[C@H]1Cc1ccc2c(c1)OCO2` [HINOKININ]: the result was Active.

Test system in a further assay: not listed separately
The assay can be described thus: Cytotoxicity against human HL60 cells after 48 hrs by CCK8 assay. The conditions noted are these: HL-60, 48 h. In kind it is functional, cell-based. (Tetrazolium assays rely on reduction of a dye to a coloured formazan, in cell work by metabolically active cells.)
`OC1OC[C@H](Cc2ccc3c(c2)OCO3)[C@H]1Cc1ccc2c(c1)OCO2` (stereo partly specified) showed an IC50 of 38.2 µM.

The molecule `c1cc2c(cc1C[C@H]1COC[C@@H]1Cc1ccc3c(c1)OCO3)OCO2` gave an IC50 of 51.1 µM.

`O=C1OC[C@H](Cc2ccc3c(c2)OCO3)[C@H]1Cc1ccc2c(c1)OCO2` [HINOKININ]: the IC50 amounted to 31.3 µM.

In turn, `C=CCc1ccc2c(c1)OCO2` [SAFROLE] yielded an IC50 of 53.2 µM.

For the molecule `OCC(O)Cc1ccc2c(c1)OCO2` (stereo unspecified) [SAFROLGLYCOL], the IC50 was found to be 60 µM.
